Reference: US8871767B2, “2-arylimidazo[1,2-B]pyridazine, 2-phenylimidazo[1,2-A]pyridine, and 2-phenylimidazo[1,2-A]pyrazine derivatives” (Hengrui (USA) Ltd., priority 2010, dated 2014)

test system: Hedgehog pathway activation (GLi-luciferase reporter) in Shh Light II reporter cells; assay: Hedgehog pathway activation on Shh Light II reporter cells measured by luciferase activity; assay type: cell-based; conditions: Mus musculus, Shh Light II, hShh activation, read-out: Shh (IC50, inhibition of Hedgehog pathway activation)
Outline: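 Shh Light II reporter cells carrying a hedgehog-responsive GLi-luciferase reporter were stimulated either with 500 nM SAG, a direct Smoothened agonist, or with conditioned media containing human Sonic Hedgehog (hShh). Test compounds were evaluated for blocking this pathway activation, quantified by luciferase activity. Cell viability was monitored in parallel with the Celltiter-Blue® assay.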

Compound	IC50
C[C@@H]1CNCCN1c1ccc2nc(-c3ccc(C(F)(F)F)c(NC(=O)C(C)(C)C)c3)cn2n1 [Example 466, (R)-N-(5-(6-(2-methylpiperazin-1-yl)imidazo[1,2-b]pyridazin-2-yl)-2-(trifluoromethyl)phenyl)pivalamide]	2020 nM
CC(C)(C)C(=O)Nc1cc(-c2cn3nc(N4CCC[C@@H]4CO)ccc3n2)ccc1C(F)(F)F [Example 469, (R)-N-(5-(6-(2-(hydroxymethyl)pyrrolidin-1-yl)imidazo[1,2-b]pyridazin-2-yl)-2-(trifluoromethyl)phenyl)pivalamide]	339 nM
Cc1ccc(-c2cn3nc(-c4cccnc4C(F)(F)F)ccc3n2)cc1C#N [Example 480, 2-methyl-5-(6-(2-(trifluoromethyl)pyridin-3-yl)imidazo[1,2-b]pyridazin-2-yl)benzonitrile]	5190 nM
Cc1ccc(-c2cn3nc(-c4cccnc4C(F)(F)F)ccc3n2)cc1C(=O)O [Example 481, 2-methyl-5-(6-(2-(trifluoromethyl)pyridin-3-yl)imidazo[1,2-b]pyridazin-2-yl)benzoic acid]	> 10000 nM
Cc1ccc(-c2cn3nc(-c4cccnc4C(F)(F)F)ccc3n2)cc1C(N)=O [Example 482, 2-methyl-5-(6-(2-(trifluoromethyl)pyridin-3-yl)imidazo[1,2-b]pyridazin-2-yl)benzamide]	> 10000 nM
Cc1ccc(-c2cn3nc(-c4c(C)noc4C)ccc3n2)cc1NC(=O)C(C)(C)C [compound 502]	580 nM
Cc1ccc(-c2cn3nc(-c4c(C)nn(C)c4C)ccc3n2)cc1NC(=O)C(C)(C)C [compound 503]	330 nM
COC(=O)c1csc(-c2cc(-c3cn4nc(-c5cccnc5C(F)(F)F)ccc4n3)ccc2C)n1 [compound 506]	1340 nM
Cc1ccc(-c2cn3nc(-c4cccnc4C(F)(F)F)ccc3n2)cc1-c1c(C)noc1C [compound 507]	2500 nM

Further lines, results first:

IC50	Compound
1120 nM	Cc1ccc(-c2cn3nc(-c4cccc(CO)n4)ccc3n2)cc1NC(=O)C(C)(C)C [Example 460, N-(5-(6-(6-(hydroxymethyl)pyridin-2-yl)imidazo[1,2-b]pyridazin-2-yl)-2-methylphenyl)pivalamide]
8390 nM	COc1cc(-c2ccc3nc(-c4ccc(C)c(NC(=O)C(C)(C)C)c4)cn3n2)ncc1C(=O)O [Example 461, 4-methoxy-6-(2-(4-methyl-3-pivalamidophenyl)imidazo[1,2-b]pyridazin-6-yl)nicotinic acid]
2610 nM	CCOC(=O)COc1cc(-c2ccc3nc(-c4ccc(C)c(NC(=O)C(C)(C)C)c4)cn3n2)cc(C(F)(F)F)n1 [Example 475, ethyl 2-(4-(2-(4-methyl-3-pivalamidophenyl)imidazo[1,2-b]pyridazin-6-yl)-6-(trifluoromethyl)pyridin-2-yloxy)acetate]
427 nM	CCOC(=O)COc1ccc(-c2ccc3nc(-c4ccc(C)c(NC(=O)C(C)(C)C)c4)cn3n2)c(C(F)(F)F)n1 [Example 476, ethyl 2-(5-(2-(4-methyl-3-pivalamidophenyl)imidazo[1,2-b]pyridazin-6-yl)-6-(trifluoromethyl)pyridin-2-yloxy)acetate]
450 nM	Cc1ccc(-c2cn3nc(-c4c[nH]nc4C)ccc3n2)cc1NC(=O)C(C)(C)C [compound 500]
1000 nM	Cc1ccc(-c2cn3nc(-c4c(C)n[nH]c4C)ccc3n2)cc1NC(=O)C(C)(C)C [compound 501]
360 nM	CC(=O)Nc1ccc(-c2ccc3nc(-c4ccc(C)c(NC(=O)C(C)(C)C)c4)cn3n2)c(C)n1 [compound 504, N-(5-(6-(6-acetamido-2-methylpyridin-3-yl)imidazo[1,2-b]pyridazin-2-yl)-2-methylphenyl)pivalamide]
990 nM	CC(=O)Nc1ccc(-c2ccc3nc(-c4ccc(C)c(NC(=O)C(C)(C)C)c4)cn3n2)cn1 [compound 505, N-(5-(6-(6-acetamidopyridin-3-yl)imidazo[1,2-b]pyridazin-2-yl)-2-methylphenyl)pivalamide]
379 nM	COC(=O)CCCCC(=O)Nc1ccc(-c2ccc3nc(-c4ccc(C)c(NC(=O)C(C)(C)C)c4)cn3n2)c(C(F)(F)F)c1 [compound 510]
